{"source": "patent US20140366440A1", "about": "“METHOD FOR PRODUCING CLONE SEEDLINGS” (OKAYAMA PREFECTURE, priority 2009, published 2014)", "key": {"[1]": {"tested_on": "E. globulus (Clone B)", "assay": "Rooting of shoots with wounded base in rooting medium containing oxidized glutathione", "type": "in vivo, Eucalyptus globulus", "conditions": "for Rooting rate (%): 9 test pieces; for Number of rooted shoots: of 9 test pieces", "experimental": "(§1) A base of the shoot thus obtained was planted to a foaming phenolic resin porous supporter (Manufactured by Smithers-Oasis Company; Product name: Oasis). […] The base of the shoot was cultured for two months in carbon dioxide gas of 1000 ppm at a temperature of 25° C. under irradiation of red light having photosynthesis photon flux density of 51.3 μmol/m^2/S and having a wavelength component of 650 nm to 670 nm to a wavelength component of 450 nm to 470 nm at a ratio of 8.2:1.8. The culturing was carried out with a culture container, which was a cube container (maximum size of about 10 cm to 11.5 cm in length×10 cm to 11.5 cm in width×10.0 cm in height) having a shape whose bulge was slightly protruded. […] Carbon dioxide gas outside the culture container was allowed to enter the culture container through this carbon dioxide gas permeable membrane covering the opening. Accordingly, carbon dioxide gas concentration inside the culture container was about 1000 ppm due to the permeation of the carbon dioxide gas through the film covering the opening of the culture container. The culture container was irradiated with red light by use of a light irradiation device (Product name: CCFL unit, maker's name: Nippon Medical& Chemical Instruments CO., LTD.). Further, humidity in the culture container is adjusted by sealing the culture container with Parafilm.\n(§2) Nine shoots were planted per culture container. A rooting rate was calculated from the number of test pieces of the shoot and the number of shoots (the number of rooted shoots) which had been rooted after the foliage was cultured for two months.\nThe culture was carried out in the same way as Example 1, except that genetically modified E. globulus (Line name: Clone B) was used and a base of the shoot was wounded by a pair of scissors. Note that the base of the shoot (the aforementioned cross-sectional surface) was cut in two directions orthogonal to each other by use of a pair of scissors, and therefore the base was wounded so as to have a cross-shaped wound seen from a front direction."}, "[2]": {"tested_on": "E. uro-grandis B", "assay": "Rooting of cuttings, oxidized glutathione solution sprayed to phylloplane", "type": "in vivo, crossbreed of eucalyptus urophylla and eucalyptus grandis", "conditions": "for Rooting rate (%): 88 test pieces; for Number of rooted shoots: of 88 test pieces", "experimental": "Oxidized glutathione was applied to a phylloplane of a cutting. That is, the cutting was prepared in the same way as that in Example 5, except that a mother tree of the cutting was E. uro-grandis (Line name: B). Then a base of the cutting was planted to the supporter similar to Example 5. An oxidized glutathione solution was prepared in the same way as Example 5, and, immediately after the base was planted, the oxidized glutathione solution was sprayed to the phylloplane in the form of a mist by use of a spray etc. A spray amount of the glutathione solution was set to about 1.1 ml per shoot. A breeding condition after planting the shoot was similar to Example 5, and a rooting rate was calculated in the same way as Example 5.\nA seedling was bred in the same way as Example 8, except that a solution having an oxidized glutathione concentration of 500 mg/L was used as the oxidized glutathione solution.\nA seedling was bred in the same way as Example 8, except that a solution having an oxidized glutathione concentration of 1000 mg/L was used as the oxidized glutathione solution."}, "[3]": {"tested_on": "Tea plant", "assay": "Rooting of tea plant cuttings, granule oxidized glutathione mixed with composite soil", "type": "in vivo", "conditions": "mix with soil; for Rooting rate (%): 462 test pieces; for Number of rooted shoots: of 462 test pieces", "experimental": "Oxidized glutathione was prepared in such a way that 1% granule oxidized glutathione was mixed with a composite soil was used. Specifically, 1% granule oxidized glutathione of 15 g was mixed with a composite soil of peat moss and vermiculite (5.5 L), and was then put into a seedling pot (3 cm in inner diameter×15 cm in height×66 holes). This seedling pot served as a supporter. A four-diluted MS medium (Composition: ammonium nitrate of 412.5 mg/L, potassium nitrate of 475 mg/L, sodium dihydrogenphosphate of 42.52 mg/L, and potassium iodide of 0.21 mg/L. Note that a carbon source was not added to this medium.) to which IBA serving as a plant hormone of 10 mg/L was added was sprayed from the above the seedling pot by use of a watering can so that the supporter was soaked with the four-diluted MS medium.\nTea plant was used as a material for a cutting. Specifically, a cutting grown to have a length of about 5 cm to 20 cm, about one to three joints, about one to six leaves was cut out from a mother tree, and a tip of each leaf was cut off. In this way, the cutting was adjusted and prepared.\nA base of the cutting thus adjusted and prepared was planted to a supporter (66 cuttings were planted per seedling pot). After this planting, the shoot was cultured for one and half months in a carbon dioxide gas concentration of 1000 ppm, a temperature of 25° C., and a humidity of 60% having a wavelength component of 650 nm to 670 nm to a wavelength component of 450 nm to 470 nm at a ratio of 8.2:1.8 under irradiation of red light having photosynthesis photon flux density of 51.3 μmol/m^2/S. After that, the seedling pot was moved to a green house, and was bred for two and half months. In the green house, a high humidity (80% or more) was kept by frequently spraying mist. After two and half month from this moving, a rooting rate was calculated from the number of rooted cuttings.\nThe culture was carried out in the same way as Example 12, except that an amount of 1% granule oxidized glutathione to be added to a composite soil (5.5 L) was set to 75 g."}, "[4]": {"tested_on": "E. globulus (Clone D)", "assay": "Rooting of shoots with wounded base in rooting medium containing oxidized glutathione", "type": "in vivo, Eucalyptus globulus", "conditions": "Example 17: 50 mg/L in medium", "experimental": "as §1, §2"}, "[5]": {"tested_on": "E. globulus (wild-type F)", "assay": "Rooting of shoots with wounded base in rooting medium containing oxidized glutathione", "type": "in vivo, Eucalyptus globulus", "conditions": "Example 19: 50 mg/L in medium", "experimental": "as §1, §2"}, "[6]": {"tested_on": "E. globulus (Clone C)", "assay": "Rooting of shoots with wounded base in rooting medium containing oxidized glutathione", "type": "in vivo, Eucalyptus globulus", "conditions": "Example 16: 50 mg/L in medium", "experimental": "as §1, §2"}, "[7]": {"tested_on": "E. globulus (Clone E)", "assay": "Rooting of shoots with wounded base in rooting medium containing oxidized glutathione", "type": "in vivo, Eucalyptus globulus", "conditions": "Example 18: 50 mg/L in medium", "experimental": "as §1, §2"}, "[8]": {"conditions": "Example 9: 500 mg/L, sprayed to phylloplane"}, "[9]": {"conditions": "Example 10: 1000 mg/L, sprayed to phylloplane"}}}
{"substance": "oxidized glutathione", "values": [{"measurement": "Rooting rate (%)", "setting": "[1]; Example 14: 25 mg/L in medium", "value": 88.9, "unit": "%"}, {"measurement": "Number of rooted shoots", "setting": "[1]; Example 14: 25 mg/L in medium", "value": 8}, {"measurement": "Rooting rate (%)", "setting": "[1]; Example 15: 75 mg/L in medium", "value": 77.8, "unit": "%"}, {"measurement": "Number of rooted shoots", "setting": "[1]; Example 15: 75 mg/L in medium", "value": 7}, {"measurement": "Rooting rate (%)", "setting": "[2]; Example 8: 200 mg/L, sprayed to phylloplane (about 1.1 ml per shoot), three weeks", "value": 54.5, "unit": "%"}, {"measurement": "Number of rooted shoots", "setting": "[2]; Example 8: 200 mg/L, sprayed to phylloplane", "value": 48}, {"measurement": "Rooting rate (%)", "setting": "[2]; [8]", "value": 59.1, "unit": "%"}, {"measurement": "Number of rooted shoots", "setting": "[2]; [8]", "value": 52}, {"measurement": "Rooting rate (%)", "setting": "[2]; [9]", "value": 60.2, "unit": "%"}, {"measurement": "Number of rooted shoots", "setting": "[2]; [9]", "value": 53}, {"measurement": "Rooting rate (%)", "setting": "[3]; Example 12: 3 mg/L in composite soil (15 g of 1% granule per 5.5 L)", "value": 96.0, "unit": "%"}, {"measurement": "Number of rooted shoots", "setting": "[3]; Example 12: 3 mg/L in composite soil", "value": 443}, {"measurement": "Rooting rate (%)", "setting": "[3]; Example 13: 15 mg/L in composite soil (75 g of 1% granule per 5.5 L)", "value": 99.6, "unit": "%"}, {"measurement": "Number of rooted shoots", "setting": "[3]; Example 13: 15 mg/L in composite soil", "value": 461}, {"measurement": "Rooting rate (%)", "setting": "[4]; 18 test pieces", "value": 88.9, "unit": "%"}, {"measurement": "Number of rooted shoots", "setting": "[4]; of 18 test pieces", "value": 16}, {"measurement": "Rooting rate (%)", "setting": "[5]; 18 test pieces", "value": 100.0, "unit": "%"}, {"measurement": "Number of rooted shoots", "setting": "[5]; of 18 test pieces", "value": 18}, {"measurement": "Rooting rate (%)", "setting": "[6]; 27 test pieces", "value": 96.3, "unit": "%"}, {"measurement": "Number of rooted shoots", "setting": "[6]; of 27 test pieces", "value": 26}, {"measurement": "Rooting rate (%)", "setting": "[7]; 27 test pieces", "value": 88.9, "unit": "%"}, {"measurement": "Number of rooted shoots", "setting": "[7]; of 27 test pieces", "value": 24}]}
